These results are taken from US9556122B2, “Luminescent 1-hydroxy-2-pyridinone chelates of lanthanides” (THE REGENTS OF THE UNIVERSITY OF CALIFORNIA, priority 2006, dated 2017).

The test is described as follows: Preliminary extraction study. The following applies: over a wide range of acidity and ionic strength.

Each structure is given as a SMILES string.

In the case of `CCCCCCCCNC(=O)c1cccc(=O)n1O` [octyl-1,2-HOPO, 1-Hydroxy-6-N-octylcarboxamide-2(1H)-pyridinone], the “specificity as extractant for Pu(IV)” value was “high specificity”.
